pIC50: −log10 of the molar value. Read-outs that look alike come from different tables or passages of the source.
Key:
[1] = biological target: T1, HDAC2 (Homo sapiens, UniProt Q92769); test: HDAC2 inhibition, trypsin-coupled kinetic fluorescence homogeneous assay; format: biochemical; conditions: for IC50: read-out: X50 (curve fit, activity versus concentration)
Experimental: To measure the inhibitory effect on deacetylase function in vitro, a continuous kinetic biochemical assay miniaturized to 384-well plate format was optimized.
Fluorescence measurements were obtained in real-time on a Varioskan microtiter plate reader (Thermo). Triplicate experimental data from incubations with inhibitor were normalized to solvent-only wells and analyzed by logistic regression (Spotfire DecisionSite).
A biochemical study of HDAC2 inhibition was carried out using the trypsin-coupled, kinetic fluorescence homogeneous assay described above.

[2] = system: human malignant melanoma cell lines; test: cell viability by ATP content (Cell TiterGlo), melanoma panel; format: cell-based; conditions: range over panel of human malignant melanoma cell lines, read-out: IC50 melanoma cell proliferation / viability
[3] = biological target: T1, HDAC2; test: HDAC biochemical assay (IC50), 384-well homogeneous; conditions: reducing conditions (TCEP 200 μM); read-out: Biochemical inhibition of human HDACs (IC50) HDAC2
Experimental: (§1) The inhibitory effect of compounds on deacetylase isoenzyme function was determined in vitro using an optimized homogenous assay performed in 384-well plate format. […] Data are analyzed on a plate-by-plate basis for the linear range of fluorescence over time. Data from the plate capture corresponding to the mid-linear range is imported into analytical software and annotated with well identity and compound concentration (Spotfire DecisionSite). Replicate experimental data from incubations with inhibitor are normalized to control, solvent-only wells and IC-50 is deteremined by logistic regression.
(§2) A liquid handling device then transferred a tripeptide substrate terminating in acetyl-lysine and amide conjugated to 4-methyl-7-aminocoumarin (AMC), recombinant human histone deacetylase (BPS Bioscience, San Diego, Calif.), and recombinant human trypsin (Sigma-Aldrich, St. Louis, Mo.). Following deacetylase hydrolysis of acetyl-lysine, trypsin cleavage liberated the AMC fluorophore. Kinetic (fluorescence per unit time) and end-point (total fluorescence) data were captured by a multilabel plate reader. Replicate data were analyzed by curve-fit using logistic regression (Snotfire Decision—Site).

[4] = biological target: HDAC1 (Homo sapiens, UniProt Q13547); test: as above; conditions: reducing conditions (TCEP 200 μM); read-out: Biochemical inhibition of human HDACs (IC50) HDAC1
HDAC1, sequence (Q13547 whole entry): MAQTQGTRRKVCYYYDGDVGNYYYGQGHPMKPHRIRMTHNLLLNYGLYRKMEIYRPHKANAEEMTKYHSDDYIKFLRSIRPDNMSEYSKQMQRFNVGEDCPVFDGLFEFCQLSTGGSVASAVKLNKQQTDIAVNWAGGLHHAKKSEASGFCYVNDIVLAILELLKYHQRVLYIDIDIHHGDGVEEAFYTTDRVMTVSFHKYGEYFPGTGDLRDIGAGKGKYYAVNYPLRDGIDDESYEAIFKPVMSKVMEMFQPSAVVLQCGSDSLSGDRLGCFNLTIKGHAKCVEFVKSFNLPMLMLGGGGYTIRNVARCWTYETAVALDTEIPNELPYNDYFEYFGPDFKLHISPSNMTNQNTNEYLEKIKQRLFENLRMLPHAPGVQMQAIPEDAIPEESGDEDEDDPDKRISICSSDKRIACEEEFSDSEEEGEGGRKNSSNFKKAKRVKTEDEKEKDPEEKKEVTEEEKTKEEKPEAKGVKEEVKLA
Experimental: as §1, §2

[5] = biological target: HDAC3/NCor2 (Homo sapiens, UniProt O15379); test: as above; conditions: read-out: Biochemical inhibition of human HDACs (IC50) HDAC3
HDAC3/NCor2, sequence (O15379 whole entry): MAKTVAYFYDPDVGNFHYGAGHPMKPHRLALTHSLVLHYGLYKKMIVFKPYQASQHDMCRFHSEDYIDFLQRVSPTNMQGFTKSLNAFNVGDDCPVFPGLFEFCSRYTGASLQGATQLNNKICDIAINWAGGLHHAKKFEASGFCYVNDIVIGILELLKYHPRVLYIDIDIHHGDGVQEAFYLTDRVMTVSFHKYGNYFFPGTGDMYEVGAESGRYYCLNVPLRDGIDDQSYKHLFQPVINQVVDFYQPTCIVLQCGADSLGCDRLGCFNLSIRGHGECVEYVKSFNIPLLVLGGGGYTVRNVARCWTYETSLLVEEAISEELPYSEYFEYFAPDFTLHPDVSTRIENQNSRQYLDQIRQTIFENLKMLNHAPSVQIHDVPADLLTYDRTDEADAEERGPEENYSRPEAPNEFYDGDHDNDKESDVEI
HDAC3/NCor2, sequence (Q9Y618 395-489 partner limits assumed): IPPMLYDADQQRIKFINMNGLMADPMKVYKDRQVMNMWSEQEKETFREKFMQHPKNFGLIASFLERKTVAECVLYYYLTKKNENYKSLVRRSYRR
Experimental: as §1, §2

[6] = biological target: T2, HDAC6 (Homo sapiens, UniProt Q9UBN7); test: as above; conditions: read-out: Biochemical inhibition of human HDACs (IC50) HDAC6
T2 sequence (Q9UBN7 1-1215): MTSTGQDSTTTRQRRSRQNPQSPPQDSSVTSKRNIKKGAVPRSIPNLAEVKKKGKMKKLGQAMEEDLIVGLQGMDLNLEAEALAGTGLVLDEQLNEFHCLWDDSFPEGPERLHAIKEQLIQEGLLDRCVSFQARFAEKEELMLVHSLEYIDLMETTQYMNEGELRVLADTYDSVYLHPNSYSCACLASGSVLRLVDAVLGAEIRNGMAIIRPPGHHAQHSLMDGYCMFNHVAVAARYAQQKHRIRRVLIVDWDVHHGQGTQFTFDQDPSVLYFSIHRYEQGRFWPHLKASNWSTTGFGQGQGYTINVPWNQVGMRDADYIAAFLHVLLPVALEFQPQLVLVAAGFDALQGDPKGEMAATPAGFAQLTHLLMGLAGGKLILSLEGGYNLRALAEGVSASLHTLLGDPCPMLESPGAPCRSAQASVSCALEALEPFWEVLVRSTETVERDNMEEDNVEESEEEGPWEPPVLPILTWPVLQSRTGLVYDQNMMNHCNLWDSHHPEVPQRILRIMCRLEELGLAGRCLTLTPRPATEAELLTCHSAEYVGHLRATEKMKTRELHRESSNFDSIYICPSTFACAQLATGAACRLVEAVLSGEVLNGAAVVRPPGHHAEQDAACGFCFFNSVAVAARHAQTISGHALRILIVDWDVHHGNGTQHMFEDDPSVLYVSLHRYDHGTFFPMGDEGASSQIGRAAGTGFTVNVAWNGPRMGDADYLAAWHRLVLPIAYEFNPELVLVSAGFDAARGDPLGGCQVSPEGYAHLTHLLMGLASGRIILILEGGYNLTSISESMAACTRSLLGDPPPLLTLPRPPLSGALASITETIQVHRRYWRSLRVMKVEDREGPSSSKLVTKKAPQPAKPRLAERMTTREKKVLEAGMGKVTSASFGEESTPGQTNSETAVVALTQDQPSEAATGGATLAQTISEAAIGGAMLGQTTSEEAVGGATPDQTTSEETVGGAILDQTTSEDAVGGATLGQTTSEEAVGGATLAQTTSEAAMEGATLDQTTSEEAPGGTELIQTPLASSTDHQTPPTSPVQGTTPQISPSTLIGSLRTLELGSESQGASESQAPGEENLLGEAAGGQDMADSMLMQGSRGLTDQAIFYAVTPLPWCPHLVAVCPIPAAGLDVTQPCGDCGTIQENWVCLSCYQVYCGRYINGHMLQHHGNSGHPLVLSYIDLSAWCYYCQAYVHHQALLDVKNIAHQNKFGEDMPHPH
Experimental: as §1, §2

[7] = amide bond, HATU, CH3CN
[8] = system: HDACs 1, 2 and 3; test: HDAC biochemical assay, summary statements on Class I HDACs; design: species or system human
[9] = HDAC2, logistic fit of scatter plots, Conc (uM)
[10] = reducing conditions (TCEP 200 μM)

T1 sequence (Q92769 whole entry): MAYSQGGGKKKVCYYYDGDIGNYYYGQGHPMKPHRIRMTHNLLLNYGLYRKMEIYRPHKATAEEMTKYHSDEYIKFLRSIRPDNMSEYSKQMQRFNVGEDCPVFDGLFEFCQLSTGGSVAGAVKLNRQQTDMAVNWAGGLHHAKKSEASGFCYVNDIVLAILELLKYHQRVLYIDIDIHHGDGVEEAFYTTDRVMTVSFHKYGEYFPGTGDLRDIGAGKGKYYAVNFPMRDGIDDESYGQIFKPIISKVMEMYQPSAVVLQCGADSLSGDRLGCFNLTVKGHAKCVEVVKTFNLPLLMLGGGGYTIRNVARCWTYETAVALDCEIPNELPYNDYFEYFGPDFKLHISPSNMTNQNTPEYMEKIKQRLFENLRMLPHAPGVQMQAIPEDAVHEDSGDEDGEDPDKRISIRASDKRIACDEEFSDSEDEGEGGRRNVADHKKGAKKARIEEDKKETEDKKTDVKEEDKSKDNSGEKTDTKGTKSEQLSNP

SMILES: CCCCCCCC(=O)SCC/C=C/[C@@H]1CC(=O)NCc2nc(cs2)C2=N[C@@](C)(CS2)C(=O)N[C@@H](C(C)C)C(=O)N1 [ab6_1236 acyl amide]
- X50 (curve fit, activity versus concentration) [1, 9]: X50 = 1.677E12 uM

SMILES: CCCCCCCC(=O)SCC/C=C/[C@@H]1CC(=O)NCc2nc(cs2)C2=N[C@@](C)(CS2)C(=O)N[C@@H](C(C)C)C(=O)O1 [largazole (1), largazole, reference compound]
- pIC50 [2]: 6.50 to 7.35
- pIC50 [1]: 5.15

SMILES: CC(C)[C@@H]1NC(=O)[C@]2(C)CSC(=N2)c2csc(n2)CNC(=O)C[C@@H](C/C=C\CCC(=O)O)OC1=O [Largazole-Azumamide hybrid (9b)]
- pIC50 [3]: < 4.52
- pIC50 [4]: < 4.52
- pIC50 [5, 10]: < 4.52
- pIC50 [6, 10]: < 4.52

SMILES: CC(C)[C@@H]1NC(=O)[C@]2(C)CSC(=N2)c2csc(n2)CNC(=O)C[C@@H](/C=C/CCSC(c2ccccc2)(c2ccccc2)c2ccccc2)NC1=O
- ring closure, yield of all isomers ([7]; from COC(=O)C[C@@H](/C=C/CCSC(c1ccccc1)(c1ccccc1)c1ccccc1)NC(=O)[C@@H](NC(=O)[C@]1(C)CSC(c2csc(CNC(=O)OC(C)(C)C)n2)=N1)C(C)C, 0.94 mM, […], 3 steps): 50%

SMILES: CCCCCCCC(=O)SCCCCC=CC1CC(=O)NCc2nc(cs2)C2=NC(C)(CS2)C(=O)NC(C(C)C)C(=O)O1 (stereo not shown) [ab6_162b]
- IC50 [1, 9]: 2.69 µM

SMILES: C[C@@]12CSC(=N1)c1csc(n1)CNC(=O)C[C@@H](/C=C/CCSC(c1ccccc1)(c1ccccc1)c1ccccc1)OC(=O)[C@@H]1CCCN1C2=O
- ring closure, yield of all isomers ([7]; from CC(C)(C)OC(=O)NCc1nc(C2=N[C@](C)(C(=O)N3CCC[C@H]3C(=O)O[C@H](/C=C/CCSC(c3ccccc3)(c3ccccc3)c3ccccc3)CC(=O)OCC[Si](C)(C)C)CS2)cs1, 0.83 mM, […], 2 steps): 43%

SMILES: CC(C)[C@@H]1NC(=O)c2csc(n2)-c2csc(n2)CNC(=O)C[C@@H](/C=C/CCS)OC1=O [Thiazole-thiazole (23b)]
- pIC50 [3]: 6.92

SMILES: CCCCCCCC(=O)SCC/C=C/[C@@H]1CC(=O)NCc2nc(cs2)C2=N[C@@](C)(CS2)C(=O)N2CCC[C@H]2C(=O)O1 [ab6_161b Proline acyl]
- IC50 [1, 9]: 708 µM

SMILES: C[C@@]12CSC(=N1)c1csc(n1)CNC(=O)C[C@@H](/C=C/CCS)OC(=O)[C@@H]1CCCN1C2=O [Proline substitution (4)]
- pIC50 [3]: 6.10
- pIC50 [4]: 6.96
- pIC50 [5]: 6.24
- pIC50 [6]: 4.89
- X50 (curve fit, activity versus concentration) [1]: X50 = 0.7733 uM

SMILES: CC(C)C1NC(=O)C2(C)CSC(=N2)c2cccc(n2)CNC(=O)CC(C=CCCS)OC1=O (stereo not shown) [Thiazole-pyridine substitution (29b)]
- pIC50 [5, 10]: 8.96
- activity against Class I HDACs [8]: sub-nanomolar
- pIC50 [6, 10]: 7.54

SMILES: CC(C)C1NC(=O)C2CSC(=N2)c2csc(n2)CNC(=O)CC(C=CCCS)OC1=O (stereo not shown) [Cysteine substitution 22b]
- pIC50 [3]: 8.32
- pIC50 [4]: 8.72
- pIC50 [5, 10]: 8.42
- pIC50 [6, 10]: 6.89

SMILES: CC(C)[C@H]1NC(=O)[C@@]2(C)CSC(=N2)c2csc(n2)CNC(=O)C[C@H](/C=C/CCSC(c2ccccc2)(c2ccccc2)c2ccccc2)OC1=O
- ring closure, yield of all isomers ([7]; from CC(C)[C@@H](NC(=O)[C@@]1(C)CSC(c2csc(CNC(=O)OC(C)(C)C)n2)=N1)C(=O)O[C@@H](/C=C/CCSC(c1ccccc1)(c1ccccc1)c1ccccc1)CC(=O)OCC[Si](C)(C)C, 2 steps): 87%

Reference: US9186402B2 (Colorado State University Research Foundation, priority 2008, dated 2015)
